Structures are written as SMILES. Where a name gives a salt, the structure may show the parent alone. Read-outs that look alike come from different tables or passages of the source.

A short description of data set [1]: Metabolic stability in liver microsomes, HLM. To be noted: 1 μM, NADPH. Background: Microsomes from liver hold many membrane-bound enzymes, among them those of drug oxidation.
Procedure: (§1) The microsomal suspension was prepared by adding liver microsomes to 100 mM potassium phosphate buffer (pH7.4) to give a final protein concentration of 0.5 mg/mL. The stock solution of NCE (10 mM in DMSO) was added to the microsomes to provide a final concentration of 1 μM. […] Samples were vortexed and centrifuged at 5,000 rpm for 10 min to remove proteins. Supernatant were analyzed on LC-MS/MS.
The nature of data set [2]: Metabolic stability in liver microsomes, MLM. To be noted: 1 μM, NADPH.
Procedure: as §1
Another data set concerns MM1S. The data set is described as follows: Anticancer activity: Alamar Blue assay, MM1S. In kind it is cell-based. The settings on record: Homo sapiens, MM1.S, read-out: MM1S EC50.

As for `O=C(NO)c1ccc(CCCN2CCc3cc(CNC4CC4c4ccc(F)cc4)ccc3C2)cc1` (stereo not drawn) [Example 78, 4-(3-(6-(((2-(4-fluorophenyl)cyclopropyl)amino)methyl)-3,4-dihydroisoquinolin-2(1H)-yl)propyl)-N-hydroxybenzamide TFA Salt], the “Metabolic stability HLM % remaining in 30 min” value in data set [1] was 72%. Besides, the “Metabolic stability MLM % remaining in 30 min” value in data set [2] is 32%.
For the molecule `O=C(CCCCCCNC(=O)c1ccc(CNC2CC2c2ccc(F)cc2)cc1)NO` (stereo not drawn) [Example 32, 4-(((2-(4-fluorophenyl)cyclopropyl)amino)methyl)-N-(7-(hydroxyamino)-7-oxoheptyl)benzamide TFA Salt], the EC50 in the data set on MM1S turned out to be 17 nM. The “Metabolic stability HLM % remaining in 30 min” value in data set [1] is on record as 41%. In addition, the “Metabolic stability MLM % remaining in 30 min” value in data set [2] is reported as 22%.
Turning to `O=C(NO)c1cnc(N2CCn3cc(CNC4CC4c4ccc(F)cc4)nc3C2)nc1` (stereo not drawn) [Example 25, 2-(2-(((2-(4-fluorophenyl)cyclopropyl)amino)methyl)-5,6-dihydroimidazo[1,2-a]pyrazin-7(8H)-yl)-N-hydroxypyrimidine-5-carboxamide TFA Salt], the EC50 with MM1S was found to be 11 nM. Further, the “Metabolic stability HLM % remaining in 30 min” value in data set [1] is reported as 75%. For the same molecule, in data set [2], the “Metabolic stability MLM % remaining in 30 min” value is recorded as 85%.
In the case of `O=C(NO)c1cnc(N2CCC(CNC3CC3c3ccc(-c4cncnc4)cc3)CC2)nc1` (stereo not drawn) [Example 17, N-hydroxy-2-(4-(((2-(4-(pyrimidin-5-yl)phenyl)cyclopropyl)amino)methyl)piperidin-1-yl)pyrimidine-5-carboxamide TFA Salt], the concentration for a half-maximal effect (EC50) in the data set with MM1S came to 17 nM. For the same molecule, the “Metabolic stability HLM % remaining in 30 min” value in data set [1] is on record as 69%. Further, in data set [2], the “Metabolic stability MLM % remaining in 30 min” value stood at 57%.
On to `Nc1ccccc1NC(=O)c1ccc(CCCN2CC(CNC3CC3c3ccc(F)cc3)C2)cc1` (stereo not drawn) [Example 126, N-(2-aminophenyl)-4-(3-(3-(((2-(4-fluorophenyl)cyclopropyl)amino)methyl)azetidin-1-yl)propyl)benzamide TFA Salt], for which the “Metabolic stability HLM % remaining in 30 min” value in data set [1] is recorded as 79%. Moreover, the “Metabolic stability MLM % remaining in 30 min” value in data set [2] is 76%.
Consider `COc1ccc(C2CC2NCC2CCN(CCCc3ccc(C(=O)Nc4ccccc4N)cc3)CC2)cc1` (stereo not drawn) [Example 123, N-(2-aminophenyl)-4-(3-(4-(((2-(4methoxyphenyl)cyclopropyl)amino)methyl)piperidin-1-yl)propyl)benzamide TFA Salt], for which the EC50 in the data set on MM1S came out at 9 nM. In addition, the “Metabolic stability HLM % remaining in 30 min” value in data set [1] was found to be 82%. Moreover, the “Metabolic stability MLM % remaining in 30 min” value in data set [2] is given as 72%.
For `O=C(NO)c1ccc(OCCCNC2CC2c2ccccc2)cc1` (stereo not drawn) [Example 101, N-hydroxy-4-(3-((2-phenylcyclopropyl)amino)propoxy)benzamide TFA Salt], in that order: 29 nM, 59% and 29%.
`Nc1ccccc1NC(=O)/C=C/c1ccc(CNC2CC2c2ccc(F)cc2)cc1` (stereo not drawn) [Example 120]: the “Metabolic stability HLM % remaining in 30 min” value in data set [1] stood at 27%. Besides, in data set [2], the “Metabolic stability MLM % remaining in 30 min” value was found to be 16%.
For the molecule `Cc1noc(C)c1-c1ccc(C2CC2NCc2ccc(/C=C/C(=O)NO)cc2)cc1` (stereo not drawn) [Example 6, (E)-3-(4-(((2-(4-(3,5-dimethylisoxazol-4-yl)phenyl)cyclopropyl)amino)methyl)phenyl)-N-hydroxyacrylamide TFA Salt], the EC50 in the data set on MM1S came out at 34 nM. Besides, the “Metabolic stability HLM % remaining in 30 min” value in data set [1] worked out at 44%. Also, in data set [2], the “Metabolic stability MLM % remaining in 30 min” value is reported as < 5%.
As for `Cc1noc(C)c1-c1ccc(C2CC2NCC2CN(CCCc3cccc(C(=O)NO)c3)C2)cc1` (stereo not drawn) [Example 65, 3-(3-(3-(((2-(4-(3,5-dimethylisoxazol-4-yl)phenyl)cyclopropyl)amino)methyl)azetidin-1-yl)propyl)-N-hydroxybenzamide TFA Salt], in the data set with MM1S (MM1S cells), the 50% effective concentration (EC50) was determined as 26 nM.
Turning to `O=C(NO)c1cnc(N2CCC(NC3CC3c3ccc(F)cc3)CC2)nc1` (stereo not drawn) [Example 10, 2-{4-[2-(4-Fluoro-phenyl)-cyclopropylamino]-piperidin-1-yl}-pyrimidine-5-carboxylic acid hydroxyamide TFA salt], in the data set with MM1S, the EC50 was 9 nM. The “Metabolic stability HLM % remaining in 30 min” value in data set [1] amounted to 81%. Further, in data set [2], the “Metabolic stability MLM % remaining in 30 min” value turned out to be 55%.
For `COc1ccc(C2CC2NCc2cn3c(n2)CN(c2ncc(C(=O)NO)cn2)CC3)cc1` (stereo not drawn) [Example 24, N-hydroxy-2-(2-(((2-(4-methoxyphenyl)cyclopropyl)amino)methyl)-5,6-dihydroimidazo[1,2-a]pyrazin-7(8H)-yl)pyrimidine-5-carboxamide TFA Salt], in that order: 9 nM, 71% and 74%.
As to `O=C(NO)c1cccc(CNC2CC2c2ccc(Br)cc2)c1` (stereo not drawn) [Example 26, 3-(((2-(4-bromophenyl)cyclopropyl)amino)methyl)-N-hydroxybenzamide TFA Salt], the “Metabolic stability HLM % remaining in 30 min” value in data set [1] was found to be 30%. Also, the “Metabolic stability MLM % remaining in 30 min” value in data set [2] was 13%.
On to `O=C(/C=C/c1ccc(CNC2CC2c2ccc(OCc3ccc(F)cc3)cc2)cc1)NO` (stereo not drawn) [Example 3, (E)-3-(4-(((2-(4-((4-fluorobenzyl)oxy)phenyl)cyclopropyl)amino)methyl)phenyl)-N-hydroxyacrylamide TFA Salt], for which the EC50 in the data set with MM1S is 104 nM. Moreover, the “Metabolic stability HLM % remaining in 30 min” value in data set [1] was 65%. Besides, in data set [2], the “Metabolic stability MLM % remaining in 30 min” value was < 5%.
`Nc1ccccc1NC(=O)c1ccc(CCCN2CCC(CNC3CC3c3ccc(C(=O)N4CCCCC4)cc3)CC2)cc1` (stereo not drawn) [Example 125, N-(2-aminophenyl)-4-(3-(4-(((2-(4-(piperidine-1-carbonyl)phenyl)cyclopropyl)amino)methyl)piperidin-1-yl)propyl)benzamide TFA Salt]: the “Metabolic stability HLM % remaining in 30 min” value in data set [1] was found to be 34%. Also, the “Metabolic stability MLM % remaining in 30 min” value in data set [2] is on record as 49%.
For `O=C(CCCCCNC1CC1c1ccccc1)NO` (stereo not drawn) [Example 29, N-hydroxy-6-((2-phenylcyclopropyl)amino)hexanamide TFA Salt], in that order: > 95% and 90%.
For `O=C(NO)c1ccc(CN2CCC(CNC3CC3c3ccccc3)CC2)cc1` (stereo not drawn) [Example 36, N-Hydroxy-4-{4-[(2-phenyl-cyclopropylamino)-methyl]-piperidin-1-ylmethyl}-benzamide TFA Salt], in that order: 63% and 53%.
With `O=C(/C=C/c1ccc(CNC2CC2c2ccc(F)cc2)cc1)NO` (stereo not drawn) [Example 2, (E)-3-(4-{[2-(4-Fluoro-phenyl)-cyclopropylamino]-methyl}-phenyl)-N-hydroxy-acrylamide TFA Salt], the “Metabolic stability HLM % remaining in 30 min” value in data set [1] was 41%. For the same molecule, the “Metabolic stability MLM % remaining in 30 min” value in data set [2] is on record as 19%.
With `O=C(/C=C/c1ccc(CNC2CC2c2ccc(C3CC3)cc2)cc1)NO` (stereo not drawn) [Example 1, (E)-3(4(((2(4cyclopropylphenyl)cyclopropl)amino)methyl)phenyl)-N-hydroxyacrylamide], in data set [1], the “Metabolic stability HLM % remaining in 30 min” value was determined as 21%. Besides, in data set [2], the “Metabolic stability MLM % remaining in 30 min” value is recorded as 5%.
For `O=C(CCCCCCNC(=O)c1ccc(CNC2CC2c2ccccc2)cc1)NO` (stereo not drawn) [Example 31, N-(6-Hydroxycarbamoyl-hexyl)-4-[(2-phenyl-cyclopropylamino)-methyl]-benzamide TFA Salt], in that order: 39% and 18%.

The EC50 is the concentration at which the effect is half-maximal.

Source of the values: US11352322B2, “Cyclopropyl-amide compounds as dual LSD1/HDAC inhibitors” (Jubilant Epicore LLC, priority 2016, dated 2022).
